Reference: article PMC9857510, “Identification of Immune-Active Peptides in Casein Hydrolysates and Its Transport Mechanism on a Caco-2 Monolayer” (Foods, 2023)
Like-named read-outs stand apart in the source and are kept apart here. Residues, ends and D or L forms follow the SMILES beside them. No end group written: not given here.

Columns and labels:
[1] = molecular target: T1, Peptide transporter 1 (Pep T1) (Homo sapiens, UniProt P46059); experiment: Absorption mechanism: Gly-Pro pre-incubation (carrier transport); type: in vitro ADME; conditions: 10 mM Gly-Pro, 30 min pre-incubation, 2 h transport, vs blank
T1 construct: endogenous in cells; host or cells: Caco-2
T1 sequence (P46059 1-708): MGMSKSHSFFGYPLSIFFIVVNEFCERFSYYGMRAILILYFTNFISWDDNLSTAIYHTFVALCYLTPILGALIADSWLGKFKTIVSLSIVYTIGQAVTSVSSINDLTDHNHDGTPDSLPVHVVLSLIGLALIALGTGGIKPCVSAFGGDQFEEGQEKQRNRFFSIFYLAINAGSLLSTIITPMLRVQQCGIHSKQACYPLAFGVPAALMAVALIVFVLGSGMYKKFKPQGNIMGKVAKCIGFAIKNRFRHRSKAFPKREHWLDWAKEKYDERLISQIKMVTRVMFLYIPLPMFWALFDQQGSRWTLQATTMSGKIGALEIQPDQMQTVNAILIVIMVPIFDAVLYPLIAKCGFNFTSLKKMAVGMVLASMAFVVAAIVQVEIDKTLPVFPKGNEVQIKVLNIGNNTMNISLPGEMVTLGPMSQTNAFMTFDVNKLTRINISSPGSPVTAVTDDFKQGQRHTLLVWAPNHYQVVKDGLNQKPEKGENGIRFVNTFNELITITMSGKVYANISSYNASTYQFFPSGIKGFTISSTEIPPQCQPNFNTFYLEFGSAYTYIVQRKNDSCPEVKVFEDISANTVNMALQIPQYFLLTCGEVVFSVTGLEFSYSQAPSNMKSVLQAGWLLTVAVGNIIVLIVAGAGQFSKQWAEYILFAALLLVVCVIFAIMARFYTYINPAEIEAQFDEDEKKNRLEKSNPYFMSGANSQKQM
Method: (§1) After 0.5 mL of 10 mM Gly-Pro, 0.1 mM sodium deoxycholate and 0.025 mM phenylarsine oxide were added to different wells on the AP side, and the Transwell plates were incubated in a CO2 incubator for 30 min and followed by the removal of these compounds. The peptides were then added to the AP side, and Hank’s Balanced Salt Solution (HBSS) buffer was added to the BL side, and samples were collected after 2 h.

P-glycoprotein = molecular target: T2, P-glycoprotein (Homo sapiens, UniProt P08183); experiment: Peptide efflux: verapamil pre-incubation; type: in vitro ADME; conditions: 0.1 mM verapamil, AP-BL, 2 h, vs blank
T2 construct: Multidrug resistance protein (MRP) and P-glycoprotein in Caco-2 cells are energy-dependent efflux transporters; endogenous in cells; host or cells: Caco-2
T2 sequence (P08183 whole entry): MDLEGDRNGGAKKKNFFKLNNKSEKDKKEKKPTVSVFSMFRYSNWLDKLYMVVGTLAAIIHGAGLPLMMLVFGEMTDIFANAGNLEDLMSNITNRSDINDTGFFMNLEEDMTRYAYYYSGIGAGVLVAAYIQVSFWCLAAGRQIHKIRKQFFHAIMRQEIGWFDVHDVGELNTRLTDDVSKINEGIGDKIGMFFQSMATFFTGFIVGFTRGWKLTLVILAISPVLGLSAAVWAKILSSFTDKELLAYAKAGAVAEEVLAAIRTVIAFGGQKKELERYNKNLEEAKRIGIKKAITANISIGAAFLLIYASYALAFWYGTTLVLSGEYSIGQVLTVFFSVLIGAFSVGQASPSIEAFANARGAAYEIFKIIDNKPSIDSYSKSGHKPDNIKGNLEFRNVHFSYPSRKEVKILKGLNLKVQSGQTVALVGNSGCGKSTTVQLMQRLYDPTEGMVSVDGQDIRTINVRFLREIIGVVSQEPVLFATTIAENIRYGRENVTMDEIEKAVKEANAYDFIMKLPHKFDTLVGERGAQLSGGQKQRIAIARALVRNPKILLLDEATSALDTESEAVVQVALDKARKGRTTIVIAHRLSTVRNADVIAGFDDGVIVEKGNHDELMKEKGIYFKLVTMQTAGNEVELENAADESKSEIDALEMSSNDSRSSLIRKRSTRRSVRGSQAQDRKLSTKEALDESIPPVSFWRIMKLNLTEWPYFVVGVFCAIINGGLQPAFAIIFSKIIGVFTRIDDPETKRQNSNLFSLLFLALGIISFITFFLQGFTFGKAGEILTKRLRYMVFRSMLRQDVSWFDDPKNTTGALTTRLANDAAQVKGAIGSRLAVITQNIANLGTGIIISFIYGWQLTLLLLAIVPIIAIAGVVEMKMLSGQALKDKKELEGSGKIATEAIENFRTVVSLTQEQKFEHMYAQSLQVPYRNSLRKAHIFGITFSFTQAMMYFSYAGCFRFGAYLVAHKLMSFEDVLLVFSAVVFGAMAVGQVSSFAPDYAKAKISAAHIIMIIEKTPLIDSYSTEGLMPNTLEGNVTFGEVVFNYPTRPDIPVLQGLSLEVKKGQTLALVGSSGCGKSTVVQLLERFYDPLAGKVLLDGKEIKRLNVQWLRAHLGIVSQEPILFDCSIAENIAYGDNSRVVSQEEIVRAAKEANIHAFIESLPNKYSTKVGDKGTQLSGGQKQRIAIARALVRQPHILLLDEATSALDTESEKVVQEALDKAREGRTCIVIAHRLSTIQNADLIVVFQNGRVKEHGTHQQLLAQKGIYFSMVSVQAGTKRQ
Method: (§2) In total, 0.5 mL of 0.05 mM MK-571 sodium salt, 0.1 mM verapamil, and 10 mM sodium azide were added to the AP side hole of the Transwell plate and incubated in a CO2 incubator for 30 min. After this incubation, the compounds were removed, the peptide was added to the AP side, and HBSS buffer was added to the BL side for 2 h.

Caco-2 cell monolayer [2] = experiment: Absorption mechanism: phenylarsine oxide (endocytosis) and sodium deoxycholate (bypass transport) pre-incubation; type: in vitro ADME, human
Method: as §1

MRP2 = molecular target: T3, MRP2 (Homo sapiens, UniProt Q92887); experiment: Peptide efflux: MK-571 sodium salt pre-incubation; type: in vitro ADME; conditions: 0.05 mM MK-571 sodium salt, AP-BL, 2 h, vs blank
T3 construct: Multidrug resistance protein (MRP) and P-glycoprotein in Caco-2 cells are energy-dependent efflux transporters; endogenous in cells; host or cells: Caco-2
T3 sequence (Q92887 whole entry): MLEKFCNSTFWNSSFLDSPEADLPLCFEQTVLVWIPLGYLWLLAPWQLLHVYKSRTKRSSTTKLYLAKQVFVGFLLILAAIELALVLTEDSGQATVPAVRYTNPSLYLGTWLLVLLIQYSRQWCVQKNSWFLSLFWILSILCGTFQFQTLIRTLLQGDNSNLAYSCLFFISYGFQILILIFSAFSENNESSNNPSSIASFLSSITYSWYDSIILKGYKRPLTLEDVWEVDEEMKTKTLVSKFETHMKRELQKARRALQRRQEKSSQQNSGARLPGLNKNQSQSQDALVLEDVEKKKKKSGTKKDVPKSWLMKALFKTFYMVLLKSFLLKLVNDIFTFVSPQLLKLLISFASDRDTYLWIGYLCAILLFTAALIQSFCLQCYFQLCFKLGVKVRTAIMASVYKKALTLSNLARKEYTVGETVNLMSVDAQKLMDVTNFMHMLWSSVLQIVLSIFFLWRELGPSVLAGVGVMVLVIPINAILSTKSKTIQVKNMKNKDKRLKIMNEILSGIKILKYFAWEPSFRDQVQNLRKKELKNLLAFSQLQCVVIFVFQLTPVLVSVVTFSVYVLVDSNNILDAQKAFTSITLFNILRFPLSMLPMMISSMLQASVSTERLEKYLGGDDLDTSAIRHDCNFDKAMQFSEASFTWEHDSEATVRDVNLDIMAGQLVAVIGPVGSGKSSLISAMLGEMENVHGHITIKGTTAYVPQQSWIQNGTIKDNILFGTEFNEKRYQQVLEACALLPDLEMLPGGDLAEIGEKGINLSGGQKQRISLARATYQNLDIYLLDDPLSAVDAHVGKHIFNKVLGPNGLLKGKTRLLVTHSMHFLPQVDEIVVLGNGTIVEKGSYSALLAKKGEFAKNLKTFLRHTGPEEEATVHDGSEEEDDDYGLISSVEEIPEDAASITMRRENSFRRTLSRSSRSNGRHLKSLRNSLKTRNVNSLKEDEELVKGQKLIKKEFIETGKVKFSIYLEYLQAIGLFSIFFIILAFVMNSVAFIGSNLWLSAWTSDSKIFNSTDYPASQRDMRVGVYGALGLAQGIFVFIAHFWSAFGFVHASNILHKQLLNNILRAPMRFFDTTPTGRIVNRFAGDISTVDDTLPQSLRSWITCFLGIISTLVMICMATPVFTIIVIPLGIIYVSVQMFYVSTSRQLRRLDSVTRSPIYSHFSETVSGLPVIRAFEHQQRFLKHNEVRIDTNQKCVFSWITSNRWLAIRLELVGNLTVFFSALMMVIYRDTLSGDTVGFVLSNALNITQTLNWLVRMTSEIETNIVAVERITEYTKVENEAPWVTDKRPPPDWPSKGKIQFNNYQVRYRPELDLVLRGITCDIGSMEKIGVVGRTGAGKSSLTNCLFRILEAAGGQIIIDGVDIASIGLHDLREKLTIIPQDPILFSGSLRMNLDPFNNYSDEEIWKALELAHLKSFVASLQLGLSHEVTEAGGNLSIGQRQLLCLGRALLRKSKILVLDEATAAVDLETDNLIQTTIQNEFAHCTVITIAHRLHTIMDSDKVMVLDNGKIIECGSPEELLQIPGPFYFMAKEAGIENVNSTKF
Method: as §2

Caco-2 cell monolayer [3] = experiment: Peptide efflux: sodium azide pre-incubation (ATP production); type: in vitro ADME, human; conditions: 10 mM sodium azide, AP-BL, 2 h, vs blank
Method: as §2

Caco-2 cell monolayer [4] = experiment: Transport assay on Caco-2 cell monolayer (Transwell, RP-HPLC quantification)
Method: (§3) Reverse phase high-performance liquid chromatography (RP-HPLC) was used to analyze the composition of peptides passed through the Caco-2 cell membrane. The elution parameters were as follows: the mobile phase B was ultra-pure water containing 0.1% Trifluoroacetic acid (TFA), and mobile phase A contained acetonitrile supplemented with 0.1% TFA. Adopting a gradient elution method, in detail, at 0.01 min, mobile phase A was 5%; at 25 min, mobile phase A was 70%. The absorbance of RP-HPLC was detected at 220 nm. The peak yields of the five electroactive peptides at the concentrations of 0.5 mM, 0.2 mM, 0.1 mM, 0.05 mM, and 0.025 mM were detected. The concentration was set as the abscissa and the peak area was set as the ordinate to draw the standard curves of the different peptide segments.
(§4) Caco-2 cells were maintained in an incubator at 37 °C, with 5% CO2 and relative humidity of 90% until the number of cells accounted for 80–90% of confluency [19]. After that, the medium was added to obtain a cellular suspension with 4 × 10^5 cells/mL, which was seeded on a 12-well Transwell plate added to the AP side of the 0.5 mL cell suspension, and the Basal lateral (BL) side by adding 1.5 mL of cell culture medium after one day after the exchange, Then, the fluid was changed every other day for 6 days, and the fluid was changed every day until the culture was completed. […] The main detection indicators were: (1) cell morphology observation; (2) the cell membrane compactness using fluorescent yellow test; (3) the detection of single-cell membrane resistance [20]; (4) alkaline phosphatase activities at the top and the basal side of the cell membrane were detected respectively to preliminarily determine the polarity of it.
(§5) The Papp formula of fluorescence is as follows:(2) Papp=dQ/dt/A×C0 where: C0—Initial concentration of fluorescent yellow (mg/mL); A—Membrane surface area (cm^2); dQ/dt—Transport of fluorescent yellow per unit time; Papp—Apparent permeability coefficient.

Caco-2 cell monolayer [5] = experiment: Integrity of peptides after passing the Caco-2 monolayer (RP-HPLC, LC-MS/MS); type: in vitro ADME, human; conditions: for integrity of the peptide after passing through the Caco-2 cell membrane: RP-HPLC and LC/MS of BL-side liquid; for Concentration (ppm): peptide and fragments found by LC-MS in the liquid that passed the membrane, parents RYPLGYL, KHPIK, FFSDK
in vitro = conditions: human, Caco-2, pH 7.4
Method: as §3, §4, §5

Caco-2 cell monolayer [6] = test system: Caco-2 cell monolayer
Method: as §3, §4, §5

Compound	integrity of the peptide after passing through the Caco-2 cell membrane (Caco-2 cell monolayer [5])	Concentration (ppm) (Caco-2 cell monolayer [5])	main transport mechanism in intestinal epithelial cells (Caco-2 cell monolayer [2])	Papp A→B at 2 h, 5 mM (in vitro)	further results
N[C@@H](Cc1ccc(O)cc1)C(=O)NCC(=O)NCC(=O)O [YGG, Tyr-Gly-Gly] (H-Tyr-Gly-Gly-OH; N-terminus and C-terminus assumed)					effect of Gly-Pro on transport to the BL side [1]: no significant differences; effect of verapamil on transmembrane transport (P-glycoprotein): significantly promote; main transport mechanism in intestinal epithelial cells (Caco-2 cell monolayer [2]; Caco-2 monolayer): bypass diffusion; effect of MK-571 sodium salt on transmembrane transport (MRP2): no significant differences; effect of sodium azide on concentration on the BL side (Caco-2 cell monolayer [3]): slightly higher
NNC(=O)NN1C(=O)c2cc(S(=O)(=O)[O-])cc3c(N)c(S(=O)(=O)[O-])cc(c23)C1=O.[Li+].[Li+] [fluorescence yellow]					Papp of fluorescence yellow (Caco-2 cell monolayer [4]; Caco-2 monolayer density check): 0.607 ×10⁻⁶ cm/s; increase of transmittance (Caco-2 cell monolayer [4]; experimental group (Caco-2 monolayer), from 0.5 h to 2.5 h): 1.6%
FFSDK [FFSDK, Phe-Phe-Ser-Asp-Lys]	Most of the KHPIK and FFSDK were hydrolyzed into KHP and FFS	2.59 ppm	bypass diffusion	0.491 ×10⁻⁶ cm/s	
KHPIK [KHPIK, Lys-His-Pro-Ile- Lys]	Most of the KHPIK and FFSDK were hydrolyzed into KHP and FFS	2.59 ppm	bypass diffusion	0.322 ×10⁻⁶ cm/s	amount across the membrane versus time (Caco-2 cell monolayer [6]; Caco-2): increased slowly; amount transported versus time (Caco-2 cell monolayer [6]; Caco-2): increased rapidly; transport quantity BL-AP side compared with AP-BL side (Caco-2 cell monolayer [6]; Caco-2): significantly lower; transmembrane transport capacity on the BL side (Caco-2 cell monolayer [6]; Caco-2, pH 6): 23.14 µM; transmembrane transport capacity on the BL side (Caco-2 cell monolayer [6]; Caco-2, pH 7): greater than 30.01 μM; transmembrane transport capacity on the BL side (Caco-2 cell monolayer [6]; Caco-2, pH 7.4): 44.35 µM
KHPIKH [KHPIKH, Lys-His-Pro-Ile-Lys-His]			bypass diffusion	0.26 ×10⁻⁶ cm/s	
RYPLGYL [RYPLGYL, Arg-Tyr-Pro-Leu-Gly-Tyr-Leu]	resistant to the enzymatic hydrolysis of intestinal epithelial cells	10.74 ppm	bypass diffusion	0.161 ×10⁻⁶ cm/s	
